Assay results taken from US20240116946A1 (Gilead Sciences, Inc., priority 2022, published 2024).
Read-outs that look alike come from different tables or passages of the source.

Tests used:
SARS-CoV-2-NLuc = assay: microbe, parasite or virus in culture; type: cell-based, SARS Coronavirus 2
[1] = molecular target: recombinant SARS-CoV-2 Main protease (Mpro) (Severe acute respiratory syndrome coronavirus 2 (2019-nCoV) (SARS-CoV-2), UniProt P0DTD1); assay: Cov Mpro Biochemical IC50 Assay; details: read-out: MPro IC50
[2] = Severe acute respiratory syndrome coronavirus, 48 h; read-out: MPro EC50
[3] = recombinant SARS-CoV-2 Mpro, fluorogenic peptide substrate
[4] = Severe acute respiratory syndrome coronavirus, 48 h, read-out: MPro EC50
[5] = recombinant SARS-CoV-2 Mpro 7.5 nM, fluorogenic peptide substrate 40 μM

Row | SMILES | EC50 (SARS-CoV-2-NLuc; [2]) | IC50 [1, 3] | EC50 (SARS-CoV-2-NLuc; [4]) | IC50 [1, 5] | EC50 (SARS-CoV-2-NLuc; read-out: MPro EC50)
1 | O=c1[nH]c2cc(-c3ccccc3)cnc2c(=O)n1-c1cncc2ccccc12 [Example 29] | 4510 nM | 476 nM | – | – | –
2 | Cc1cncc(-n2c(=O)c3sc(-c4ccccc4Cl)cc3n(CCC#N)c2=O)n1 [Example 833] | – | – | 49.7 nM | 16 nM | –
3 | Cc1c2c(-n3c(=O)c4sc(-c5ccccc5C#N)cc4n(CCC#N)c3=O)cncc2nn1C [Example 896] | 479 nM | – | – | 59.2 nM | –
4 | COc1cc(-c2cc3c(s2)c(=O)n(-c2cncc4nc(-c5coc(C)n5)n(C)c24)c(=O)n3CCC#N)c(Cl)cc1F [Example 757] | – | – | 40.3 nM | 11.4 nM | –
5 | CCc1cncc(-n2c(=O)[nH]c3cc(-c4ccccc4Cl)sc3c2=O)c1 [Example 217] | – | 66.6 nM | 96.2 nM | – | –
6 | COc1cc(-c2cc(OC)c3c(=O)n(-c4cncc5ccccc45)c(=O)[nH]c3c2)c(C#N)cc1F [Example 679] | – | – | 80.1 nM | 25.4 nM | –
7 | O=c1[nH]c2cc(-c3cc(C4CC4)ccc3Cl)sc2c(=O)n1-c1cncc2ccccc12 [Example 351] | – | 19.6 nM | 69.2 nM | – | –
8 | O=c1[nH]c2cc(-c3ccccc3Cl)sc2c(=O)n1-c1cnccc1C1CC1 [Example 130, 6-(2-chlorophenyl)-3-(4-cyclopropylpyridin-3-yl)thieno[3,2-d]pyrimidine-2,4(1H,3H)-dione] | – | 73.1 nM | 147 nM | – | –
9 | COc1cc(-c2ccc3c(=O)n(-c4cncc5ccccc45)c(=O)[nH]c3c2)c(C#N)cn1 [Example 335] | – | 290 nM | 991 nM | – | –
10 | COc1cc(-c2cc3c(s2)c(=O)n(-c2cncc4cnn(C)c24)c(=O)n3CC(F)(F)F)c(Cl)cc1F [Example 1066] | – | – | 19.9 nM | 15.3 nM | –
11 | Cc1nc2cncc(-n3c(=O)c4sc(-c5ccccc5C#N)cc4n(CCC#N)c3=O)c2n1C [Example 854] | – | – | > 1000 nM | 93.3 nM | –
12 | Cn1ncc2cncc(-n3c(=O)c4sc(-c5cc(C(F)(F)F)ccc5C#N)cc4n(CCC#N)c3=O)c21 [Example 822] | 346 nM | – | – | 96.4 nM | –
13 | COc1cc(-c2cc3[nH]c(=O)n(-c4cncc5ccccc45)c(=O)c3s2)c(C)cc1C [Example 717] | – | – | 25.3 nM | 23.8 nM | –
14 | Cc1c(Cl)cncc1-n1c(=O)c2sc(-c3ccccc3C#N)cc2n(CCC#N)c1=O [Example 846] | 37.3 nM | – | – | 12.5 nM | –
15 | N#CCn1c(=O)n(-c2cncc3cccnc23)c(=O)c2sc(-c3ccccc3Cl)cc21 [Example 710] | – | – | 22.6 nM | < 4.33 nM | –
16 | O=c1[nH]c2cc(-c3c(Cl)cccc3-c3ccnc(C4CC4)c3)ccc2c(=O)n1-c1cncc2ccccc12 [Example 318] | – | 8.65 nM | < 3.42 nM | – | –
17 | COc1cc(-c2cc3c(s2)c(=O)n(-c2cncc4[nH]nc(C)c24)c(=O)n3CCC#N)c(Cl)cc1F (single isomer, unassigned) [Example 960, 3-(6-(2-chloro-4-fluoro-5-methoxyphenyl)-3-(3-methyl-1H-pyrazolo[3,4-c]pyridin-4-yl)-2,4-dioxo-3,4-dihydrothieno[3,2-d]pyrimidin-1(2H)-yl)propanenitrile] | – | – | – | 79.6 nM | 163 nM
18 | O=c1[nH]c2cc(-c3ccccc3Cl)sc2c(=O)n1-c1cncc2cnn(CC(F)(F)F)c12 [Example 496] | – | – | 138 nM | 31.6 nM | –
19 | N#Cc1cc(-c2cc3[nH]c(=O)n(-c4cncc5ccccc45)c(=O)c3s2)c(Cl)cc1F [Example 646] | – | – | 11800 nM | 1900 nM | –
20 | COc1cc(-c2cc3c(s2)c(=O)n(-c2cncc4nnn(C(C)C)c24)c(=O)n3CCC#N)c(Cl)cc1F [Example 991] | – | – | 49.8 nM | 16 nM | –
21 | O=c1[nH]c2cc(-c3c(Cl)cccc3-c3cnn4c3CCCC4)ccc2c(=O)n1-c1cncc2ccccc12 [Example 306] | – | 8.21 nM | 5.19 nM | – | –
22 | N#CCCn1c(=O)n(-c2cncc3nnn(C4CC4)c23)c(=O)c2sc(-c3ccccc3Cl)cc21 [Example 938] | – | – | 77 nM | 17.6 nM | –
23 | COc1cc(-c2cc3c(s2)c(=O)n(-c2cnc(F)c(C)c2)c(=O)n3CCC#N)c(C#N)cc1F [Example 780] | – | – | 53.3 nM | 17.4 nM | –
24 | Cc1ccc(Cl)c(-c2ccc3c(=O)n(-c4cncc5ccccc45)c(=O)[nH]c3c2)c1 [Example 252] | – | 151 nM | 321 nM | – | –
25 | Cc1cc(-c2cccc(Cl)c2-c2cc3[nH]c(=O)n(-c4cncc(C5CC5)c4)c(=O)c3s2)cn2ncnc12 [Example 618] | – | – | 16 nM | 6.56 nM | –
26 | COc1ccc(C#N)c(-c2cc3[nH]c(=O)n(-c4cncc5ccc(N6CCn7nc(C(F)(F)F)nc7C6)cc45)c(=O)c3s2)c1 [Example 605] | – | – | 91.2 nM | 10.1 nM | –
27 | COc1cc(-c2cc3c(s2)c(=O)n(-c2cncc(C(F)(F)F)c2)c(=O)n3CCC#N)c(Cl)cc1F [Example 869] | – | – | 73 nM | 23.9 nM | –

Row | SMILES | EC50 (SARS-CoV-2-NLuc; [2]) | IC50 [1, 3] | EC50 (SARS-CoV-2-NLuc; [4]) | IC50 [1, 5] | EC50 (SARS-CoV-2-NLuc; read-out: MPro EC50)
28 | COc1cc(-c2cc3[nH]c(=O)n(-c4cncc5nn(C)cc45)c(=O)c3s2)c(Cl)cc1F [Example 731] | – | – | 65.6 nM | 5.04 nM | –
29 | Cn1ccc2cccc(-c3ccc4c(=O)n(-c5cncc6ccccc56)c(=O)[nH]c4c3)c21 [Example 41] | 3840 nM | 1480 nM | – | – | –
30 | O=c1[nH]c2cc(-c3ccccc3Cl)sc2c(=O)n1-c1cncc2cc(Cl)ccc12 [Example 590] | – | – | 299 nM | 194 nM | –
31 | O=c1[nH]c2cc(-c3csc4ccccc34)ccc2c(=O)n1-c1cncc2ccccc12 [Example 50] | – | 7920 nM | 9060 nM | – | –
32 | COc1cc(-c2cc3c(s2)c(=O)n(-c2cncc4c2CCCC4)c(=O)n3CCC#N)c(Cl)cc1F [Example 908] | – | – | 6.84 nM | 7.52 nM | –
33 | Cn1ncc2c(-n3c(=O)[nH]c4cc(-c5ccccc5Cl)sc4c3=O)cncc21 [Example 491] | – | – | 64.3 nM | 17.3 nM | –
34 | N#CCCn1c(=O)n(-c2cncc3ccccc23)c(=O)c2sc(-c3cc(Cl)ccc3C#N)cc21 [Example 821] | – | – | 11.5 nM | 6.75 nM | –
35 | O=c1[nH]c2cc(-c3ccc4ccccc4c3)ccc2c(=O)n1-c1cncc2ccccc12 [Example 51] | – | > 100000 nM | 6800 nM | – | –
36 | O=c1[nH]c2cc(-c3cc(C(F)(F)F)ccc3Cl)ccc2c(=O)n1-c1cncc2ccccc12 [Example 180] | – | 3740 nM | 1960 nM | – | –
37 | CCn1cc(-c2cccc(Cl)c2-c2ccc3c(=O)n(-c4cncc5ccccc45)c(=O)[nH]c3c2)c(C(F)(F)F)n1 [Example 281] | – | 71.8 nM | 39.5 nM | – | –
38 | N#Cc1cccc(-c2ccc3c(=O)n(-c4cncc5ccccc45)c(=O)[nH]c3c2)c1 [Example 34] | – | 1520 nM | 6530 nM | – | –
39 | Cn1ncc2cncc(-n3c(=O)c4sc(-c5ccccc5C#N)cc4n(CCC#N)c3=O)c21 (single isomer, unassigned) [Example 962, 2-(1-(2-cyanoethyl)-3-(1-methyl-1H-pyrazolo[4,3-c]pyridin-7-yl)-2,4-dioxo-1,2,3,4-tetrahydrothieno[3,2-d]pyrimidin-6-yl)benzonitrile] | – | – | – | > 1000 nM | > 1000 nM
40 | COc1cc(-c2cc3c(s2)c(=O)n(-c2cncc4ncn(C)c24)c(=O)n3CCC#N)c(C#N)cc1F [Example 845] | – | – | 388 nM | 10 nM | –
41 | O=c1[nH]c2cc(-c3c(Cl)cccc3OCc3ccnnc3)ccc2c(=O)n1-c1cncc2ccccc12 [Example 93] | – | 11.4 nM | 95 nM | – | –
42 | O=c1[nH]c2cc(-c3ccccc3Cl)sc2c(=O)n1-c1cncc2ncccc12 [Example 134] | – | 63.3 nM | 150 nM | – | –
43 | COc1cc(-c2nc3c(s2)c(=O)n(-c2cncc4ccccc24)c(=O)n3CC#N)c(Cl)cc1F [Example 705] | – | – | 8.11 nM | 4.74 nM | –
44 | COc1ccc(C#N)c(-c2cc3[nH]c(=O)n(-c4cncc5ccc(OC)cc45)c(=O)c3cc2F)c1 [Example 429] | – | – | 11.2 nM | 2.83 nM | –
45 | COc1cc(-c2cc3c(s2)c(=O)n(-c2cncc4nn(C)c(C)c24)c(=O)n3CCC#N)c(Cl)cc1F [Example 926, 3-(6-(2-chloro-4-fluoro-5-methoxyphenyl)-3-(2,3-dimethyl-2H-pyrazolo[3,4-c]pyridin-4-yl)-2,4-dioxo-3,4-dihydrothieno[3,2-d]pyrimidin-1(2H)-yl)propanenitrile] | – | – | 8.89 nM | 6.74 nM | –
46 | COc1cc(-c2cc3c(=O)n(-c4cncc5ccccc45)c(=O)n(CCC#N)c3s2)c(Cl)cc1F [Example 867] | – | – | 13.1 nM | 9.82 nM | –
47 | Cn1cnc(Cn2c(=O)n(-c3cncc(C4CC4)c3)c(=O)c3sc(-c4ccccc4Cl)cc32)n1 [Example 621] | – | – | 710 nM | 495 nM | –
48 | COc1cnc(C#N)c(-c2ccc3c(=O)n(-c4cncc5ccccc45)c(=O)[nH]c3c2)c1 [Example 333] | – | 149 nM | 765 nM | – | –
49 | Cc1ccnc(Cl)c1-c1cc2[nH]c(=O)n(-c3cncc4ccccc34)c(=O)c2s1 [Example 290] | – | 159 nM | 484 nM | – | –
50 | O=c1[nH]c2cc(-c3ccccc3Cl)c(F)cc2c(=O)n1-c1cncc2ccccc12 [Example 37] | – | 248 nM | 170 nM | – | –
51 | CN1C(=O)COc2cc(-c3cccc(Cl)c3-c3ccc4c(=O)n(-c5cncc6ccccc56)c(=O)[nH]c4c3)ccc21 [Example 197] | – | 13.9 nM | 8.58 nM | – | –
52 | O=c1[nH]c2cc(-c3c(Cl)cccc3C3=CCOCC3)sc2c(=O)n1-c1cncc2ccccc12 [Example 522] | – | – | 5.1 nM | 9.84 nM | –
53 | Cc1ccccc1-c1cnc2c(=O)n(-c3cncc4ccccc34)c(=O)[nH]c2c1 [Example 46] | 989 nM | 216 nM | – | – | –
54 | Cc1ccc(C#N)cc1-c1cc2c(s1)c(=O)n(-c1cncc3ccccc13)c(=O)n2CCC#N [Example 810] | 86.9 nM | – | – | 19.8 nM | –
